From US20240165226A1, “COMBINATION TREATMENT OF CD38-EXPRESSING TUMORS” (GENMAB A/S, priority 2006, published 2024)

How the values were obtained:
fresh MM tumor cells = assay: Binding to fresh multiple myeloma tumor cells by flow cytometry; parameters: species or system human; conditions: for binding to MM cells: in words
Description: Fresh MM tumor cells were obtained from Dr. Lokhorst (University Medical Center Utrecht, Utrecht, The Netherlands. Tumor cells were isolated from bone marrow of multiple myeloma patients by Ficoll (Bio Whittaker; lymphocyte separation medium, cat 17-829E) gradient centrifugation. After harvesting and counting, MM cells (100,000 cells/well) were resuspended with 25 μl FITC-labeled CD38-specific antibodies and 25 μl CD138. After incubation (4° C., 30 min), cells were washed in PBS-BSA and PE-labeled goat-anti-mouse IgG (1:200; Jackson ImmunoResearch Europe Ltd. Soham, UK) was added. After incubation (4° C., 30 min) and washing of the cells in PBS-BSA, fluorescence was measured by flow cytometry.

PBMCs [1] = assay: Induction of IL-6 release by PBMC; type: cell-based, human; conditions: 20 μg/ml antibody and 10 ng/ml LPS, 7 donors
Description: (§1) -003, -005 and -024 were tested in an assay as described in Ausiello et al., Tissue antigens 56, 538-547 (2000). Briefly, PBMCs were cultured at 1×10^6 cells/well in 48-well plates in the presence of 20 μg/ml of antibodies and 10 ng/ml LPS (Sigma-Aldrich Chemie, Zwijndrecht, The Netherlands) in 500 μl RPMI^++. After an O/N incubation at 37° C., supernatant was harvested and stored at −20° C. The IL-6 concentration was assessed by ELISA (IL-6 ELISA kit, U-CyTech Biosciences, Utrecht, The Netherlands) according to the manufacturer's instructions. Data are shown mean concentration in pg/ml (±SEM) from 7 donors.

Daudi-luc cells [2] = assay: Complement-dependent cytotoxicity of Daudi-luc cells; type: cell-based; conditions: for CDC-mediated lysis of Daudi-luc cells: in words
Description: After harvesting and counting of Daudi-luc cells, the viability of the cells should be ≥90%. After washing (PBS), cells are resuspended at 2.0×10^6 cells/ml in RPMI-B (RPMI supplemented with 1% BSA). Thereafter, cells are put in 96-well round-bottom plates at 1×10^5 cells/well (50 μl/well). Then, 50 μl antibodies is added to the wells (final concentration range between 0-100 μg/ml (three-fold dilutions in RPMI-B)). After incubation (RT, 15 min), 11 μl of pooled human serum (pool of 18 healthy donors) was added to each well (37° ° C., 45 min). Wells were resuspended once and 120 μl was transferred to FACS tubes (Greiner). Then, 10 μl propidium iodide (PI; Sigma-Aldrich Chemie B.V.) was added (10 μg/ml solution) to this suspension. Lysis was detected by flow cytometry (FACScalibur™, Becton Dickinson, San Diego, CA, USA) by measurement of the percentage of dead cells (corresponds to PI-positive cells).

PBMCs [3] = assay: Induction of release of IFN-γ by PBMC; type: cell-based, human; conditions: 20 μg/ml antibody and 1 μg/ml OKT-3, 9 donors
Description: as §1, with “and 1 μg/ml OKT-3 (Sanquin, Amsterdam,” for “and 10 ng/ml LPS (Sigma-Aldrich Chemie, Zwijndrecht,”, “The IFN-γ” for “The IL-6”, “ELISA (IFN-γ” for “ELISA (IL-6”, “from 9” for “from 7”

Daudi-luc cells [4] = assay: Binding to Daudi-luc cells by flow cytometry; conditions: for binding to Daudi-luc cells: in words
Description: After harvesting and counting, Daudi-luc cells, CHO cells transfected with CD38 and control CHO cells were resuspended in PBS (1×10^6 cells/ml). Then, cells were put in 96-well V-bottom plates (100 μl/well) and washed twice in PBS-BSA (PBS supplemented with 0.1% BSA and 0.02% Na-azide). Thereafter, 50 μl antibody solution in PBS-BSA was added to the cells (4° C., 30 min). After washing three times in PBS-BSA, 50 μl (1:400 dilution) of rabbit anti-human IgG-FITC in PBS-BSA was added (4° C. in the dark, 30 min). Cells were washed three times and specific binding of CD38-antibodies to CHO-CD38 and Daudi-luc cells was detected by flow cytometry. HuMab-KLH (a human monoclonal antibody against KLH (keyhole limpet haemocyanin) generated by Genmab B.V., Utrecht, The Netherlands by use of the immunization protocols described elsewhere herein) was used as a control. […] No binding to control CHO cells is observed (data not shown).

[5] = system: tumor cells obtained from different MM patients; assay: Complement-dependent cytotoxicity of tumor cells from MM patients; type: cell-based, human; conditions: in words
[6] = CDC, Daudi-luc cells (n = 2), Table 10

Molecule	EC50 MM cells (fresh MM tumor cells; binding, flow cytometry)	binding to MM cells (fresh MM tumor cells)	release of IL-6 (PBMCs [1])	maximum lysis (Daudi-luc cells [2]; CDC)	maximal lysis compared to TH3079 (Daudi-luc cells [2]; CDC of Daudi-luciferase cells)	% Max. lysis (Daudi-luc cells [2]; [6])	EC50 (Daudi-luc cells [2]; [6])	EC50 Daudi-luc (Daudi-luc cells [2]; CDC, Table 3)	CDC-mediated lysis of Daudi-luc cells (Daudi-luc cells [2])	release of IFN-γ (PBMCs [3])	EC50 Daudi-luc (Daudi-luc cells [4]; binding, flow cytometry)	binding to Daudi-luc cells (Daudi-luc cells [4])	CDC-mediated lysis of MM patient tumor cells [5]
-005: human monoclonal IgG1 anti-CD38 antibody, VL region SEQ ID No:12 and VH region SEQ ID No:17	0.04 µg/mL	bind	does not induce release of significant IL-6 levels	~60%	2-3 times higher	70.5 ± 7.78%	0.39 ± 0.00 µg/mL	0.33 µg/mL	lysis of Daudi-luc cells is induced	does not induce release of detectable IFN-γ levels	0.09 µg/mL	bind	CDC-mediated lysis is observed
-024: human monoclonal IgG1 anti-CD38 antibody, VL region SEQ ID No:22 and VH region SEQ ID No:27 (antibody, listed as Homo sapiens, V domains shown) VH: EVQLVQSGAEVKKPGESLKISCKGSGYSFSNYWIGWVRQMPGKGLEWMGIIYPHDSDARYSPSFQGQVTFSADKSISTAYLQWSSLKASDTAMYYCARHVGWGSRYWYFDLWGRGTLVTVSS VL: EIVLTQSPATLSLSPGERATLSCRASQSVSSYLAWYQQKPGQAPGLLIYDASNRASGIPARFSGSGSGTDFTLTISSLEPEDFAVYYCQQRSNWPLTFGGGTKVEIK		bind	did not induce release of significant IL-6 levels						does not induce CDC	did not induce release of significant IFN-γ levels		bind	induced lysis
